Measured values: patent publication US8618163B2, “Derivatives of cycloalkyl- and cycloalkenyl-1,2-dicarboxylic acid compounds having formyl peptide receptor like-1 (FPRL-1) agonist or antagonist activity” (Allergan, Inc., priority 2010, dated 2013)
Where two headings read alike, the source gives them in different places.

How the values were obtained:
FPRL1 = biological target: T1, FPRL1 (Homo sapiens, UniProt P25090); test: compound-induced calcium activity on FLIPR Tetra in CHO-Gal6 cells stably expressing FPRL1; assay type: cell-based; settings: for EC50: read-out: FPRL1 EC50; for FPRL1 (rel. eff.): relative efficacy
T1 construct: expressed in transfected cells; host or cells: CHO-Gal6 (CHO cells with G alpha 16)
T1 sequence (P25090 1-351): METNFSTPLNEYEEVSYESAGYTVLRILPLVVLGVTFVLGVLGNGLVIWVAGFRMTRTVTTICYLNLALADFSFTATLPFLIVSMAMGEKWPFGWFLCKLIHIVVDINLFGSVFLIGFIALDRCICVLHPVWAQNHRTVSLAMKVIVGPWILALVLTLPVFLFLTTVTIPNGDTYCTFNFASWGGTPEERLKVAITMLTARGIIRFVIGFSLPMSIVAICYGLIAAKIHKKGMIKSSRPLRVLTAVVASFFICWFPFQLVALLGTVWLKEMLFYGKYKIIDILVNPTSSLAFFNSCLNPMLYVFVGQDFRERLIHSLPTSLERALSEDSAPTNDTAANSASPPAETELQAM
Procedure: (§1) CHO-Gal6 cells stably expressing FPRL1 were cultured in (F12, 10% FBS, 1% PSA, 400 μg/ml geneticin and 50 μg/ml hygromycin) and HEK-Gqi5 cells stable expressing FPR1 were cultured in (DMEM high glucose, 10% FBS, 1% PSA, 400 μg/ml geneticin and 50 μg/ml hygromycin). In general, the day before the experiment, 18,000 cells/well were plated in a 384-well clear bottom poly-d-lysine coated plate. The following day the screening compound-induced calcium activity was assayed on the FLIPR^Tetra. The drug plates were prepared in 384-well microplates using the EP3 and the MultiPROBE robotic liquid handling systems. Compounds were tested at concentrations ranging from 0.61 to 10,000 nM. Results are expressed as EC50 (nM) and efficacy values.

FPR1 = biological target: T2, FPR1 (Homo sapiens, UniProt P21462); test: compound-induced calcium activity on FLIPR Tetra in HEK-Gqi5 cells stable expressing FPR1; assay type: cell-based; design: FPR1 (rel. eff.): scale not given here
T2 construct: expressed in transfected cells; host or cells: HEK-Gqi5 (HEK cells with chimeric G protein Gqi5)
T2 sequence (P21462 1-350): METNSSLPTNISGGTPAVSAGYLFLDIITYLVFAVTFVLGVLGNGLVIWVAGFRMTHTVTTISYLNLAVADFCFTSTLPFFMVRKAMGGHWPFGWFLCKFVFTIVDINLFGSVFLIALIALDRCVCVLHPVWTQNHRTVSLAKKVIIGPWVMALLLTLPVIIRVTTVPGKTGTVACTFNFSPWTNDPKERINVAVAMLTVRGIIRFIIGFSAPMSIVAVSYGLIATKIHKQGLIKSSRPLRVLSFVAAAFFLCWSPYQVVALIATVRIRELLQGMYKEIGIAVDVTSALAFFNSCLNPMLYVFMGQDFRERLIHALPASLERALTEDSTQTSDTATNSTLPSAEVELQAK
Procedure: as §1

[1] = calcium, FLIPR Tetra, tested 0.61 to 10,000 nM
[2] = class symbol NA, read-out: FPR1 EC50 (NA = Not Active)

EC50 (FPRL1; [1]) [µM]	FPRL1 (rel. eff.) (FPRL1; calcium, FLIPR Tetra)	EC50 (FPR1; cells printed in μM, read-out: FPR1 EC50) [µM]	FPR1 (rel. eff.) (FPR1; relative efficacy, calcium, FLIPR Tetra)	EC50 (FPR1; [2]) [µM]	EC50 (FPRL1; in μM) [µM]	SMILES
< 0.001	0.91	> 40	0.30	–	–	NC(=O)C1C(C(=O)Nc2ccc(Br)cc2)C2CCC1C21CC1 (racemic) [Compound 46B]
0.051	0.79	–	–	> 10	–	CCc1ccc(NC(=O)C2C(C(N)=O)C3C=CC2C32CC2)cc1 (racemic) [Compound 48, (+/−)-(1R,4S,5R,6S)—N-5-(4-Ethylphenyl)spiro[bicyclo[2.2.1]hept[2]ene-7,1′-cyclopropane]-5,6-dicarboxamide]
0.097	0.90	–	–	> 10	–	CSc1ccc(NC(=O)C2C(C(N)=O)C3C=CC2C32CC2)cc1 (racemic) [Compound 49, (+/−)-(1R,4S,5R,6S)—N-5-(4-(Methylthio)phenyl)spiro[bicyclo[2.2.1]hept[2]ene-7,1′-cyclopropane]-5,6-dicarboxamide]
0.0018	0.85	–	–	> 10	–	NC(=O)C1C(C(=O)Nc2ccc(I)cc2)C2C=CC1C21CC1 (racemic) [Compound 50, (+/−)-(1R,4S,5R,6S)—N-5-(4-Iodophenyl)spiro[bicyclo[2.2.1]hept[2]ene-7,1′-cyclopropane]-5,6-dicarboxamide]
< 0.0048	0.87	–	–	> 10	–	NC(=O)[C@@H]1[C@H](C(=O)Nc2ccc(I)cc2)[C@@H]2CC[C@H]1C21CC1 (racemic) [Compound 51, (+/−)-(1S,2R,3S,4R)—N2-(4-Iodophenyl)spiro[bicyclo[2.2.1]heptane-7,1′-cyclopropane]-2,3-dicarboxamide]
0.033	0.97	–	–	> 10	–	CCc1ccc(NC(=O)[C@H]2[C@@H](C(N)=O)[C@H]3CC[C@@H]2C32CC2)cc1 (racemic) [Compound 52, (+/−)-(1S,2R,3S,4R)—N^2-(4-Ethylphenyl)spiro[bicyclo[2.2.1]heptane-7,1′-cyclopropane]-2,3-dicarboxamide]
0.015	0.86	–	–	> 10	–	CSc1ccc(NC(=O)[C@H]2[C@@H](C(N)=O)[C@H]3CC[C@@H]2C32CC2)cc1 (racemic) [Compound 53, (+/−)-(1S,2R,3S,4R)—N2-(4-(Methylthio)phenyl)spiro[bicyclo[2.2.1]heptane-7,1′-cyclopropane]-2,3-dicarboxamide]
–	0.81	–	–	> 10	–	CC1(C)[C@@H]2CC[C@H]1[C@@H](C(=O)Nc1ccc(I)cc1)[C@H]2C(N)=O (racemic) [Compound 55, (+/−)-(1S,2R,3S,4R)—N2-(4-Iodophenyl)-7,7-dimethylbicyclo[2.2.1]heptane-2,3-dicarboxamide]
–	ND (0.96)	–	–	> 10	–	CSc1ccc(NC(=O)[C@H]2[C@@H](C(N)=O)[C@H]3CC[C@@H]2C3(C)C)cc1 (racemic) [Compound 56, (+/−)-(1S,2R,3S,4R)-7,7-Dimethyl-N2-(4-(methylthio)phenyl)bicyclo[2.2.1]heptane-2,3-dicarboxamide]
0.035	0.95	–	–	> 10	–	CCc1ccc(NC(=O)[C@H]2[C@@H](C(N)=O)[C@H]3CC[C@@H]2C3(C)C)cc1 (racemic) [Compound 57, (+/−)-(1S,2R,3S,4R)—N2-(4-Ethylphenyl)-7,7-dimethylbicyclo[2.2.1]heptane-2,3-dicarboxamide]
0.229	0.91	–	–	> 10	–	O=C(Nc1ccc(Br)cc1)C1C(CO)C2C=CC1C21CC1 (racemic) [Compound 58, (+/−)-(1R,4S,5R,6S)—N-(4-Bromophenyl)-6-(hydroxymethyl)spiro[bicyclo[2.2.1]-hept[2]ene-7,1′-cyclopropane]-5-carboxamide]
–	0.76	–	–	> 10	> 10	O=C(Nc1ccc(Br)cc1)[C@H]1[C@@H](CO)[C@H]2CC[C@@H]1C21CC1 (racemic) [Compound 59, (+/−)-(1S,2R,3S,4R)—N-(4-Bromophenyl)-3-(hydroxymethyl)spiro[bicyclo[2.2.1]-heptane-7,1′-cyclopropane]-2-carboxamide]
–	0.82	–	–	> 10	–	CC1(C)C2CCC1C(C(=O)Nc1ccc(I)cc1)C2C(N)=O (racemic) [Compound 61, (+/−)-(1S,2R,3S,4R)—N^2-(4-Iodophenyl)-7,7-dimethylbicyclo[2.2.1]heptanes-2,3-dicarboxamide]
0.005	0.89	–	–	> 10	–	NC(=O)[C@@H]1[C@H](C(=O)Nc2ccc(I)cc2)[C@@H]2CC[C@H]1C21CC1 (racemic) [Compound 62, (+/−)-(1S,2R,3S,4R)—N^2-(4-Iodophenyl)-[bicyclo[2.2.1]heptane-7,1′-cyclopropane]-2,3-dicarboxamide]
0.0966	0.9	–	–	> 10	–	CSc1ccc(NC(=O)C2C(C(N)=O)C3C=CC2C32CC2)cc1 (racemic) [Compound 63, (+/−)-(1R,4S,5R,6S)—N^5-(4-(Methylthio)phenyl)spiro[bicyclo[2.2.1]hept[2]ene-7,1′-cyclopropane]-5,6-dicarboxamide]
0.0172	0.9	–	–	> 10	–	CSc1ccc(NC(=O)[C@H]2[C@@H](C(N)=O)[C@H]3CC[C@@H]2C3(C)C)cc1 (racemic) [Compound 64, (+/−)-(1S,2R,3S,4R)-7,7-Dimethyl-N^2-(4-(methylthio)phenyl)bicyclo[2.2.1]heptane-2,3-dicarboxamide]
0.035	0.95	–	–	> 10	–	CCc1ccc(NC(=O)[C@H]2[C@@H](C(N)=O)[C@H]3CC[C@@H]2C3(C)C)cc1 (racemic) [Compound 65, (+/−)-(1S,2R,3S,4R)—N^2-(4-Ethylphenyl)-7,7-dimethyl-bicyclo[2.2.1]heptane-2,3-dicarboxamide]
0.0508	0.79	–	–	> 10	–	CCc1ccc(NC(=O)C2C(C(N)=O)C3C=CC2C32CC2)cc1 (racemic) [Compound 66, (+/−)-(1R,4S,5R,6S)—N^5-(4-Ethylphenyl)spiro[bicyclo[2.2.1]hept[2]ene-7,1′-cyclopropane]-5,6-dicarboxamide]
0.0157	0.91	–	–	> 10	–	CSc1ccc(NC(=O)[C@H]2[C@@H](C(N)=O)[C@H]3CC[C@@H]2C32CC2)cc1 (racemic) [Compound 67, (+/−)-(1S,2R,3S,4R)—N^2-(4-(Methylthio)phenyl)-spiro[bicyclo[2.2.1]heptane-7,1′-cyclopropane]-2,3-dicarboxamide]
0.0381	1.0	–	–	> 10	–	CCc1ccc(NC(=O)[C@H]2[C@@H](C(N)=O)[C@H]3CC[C@@H]2C32CC2)cc1 (racemic) [Compound 68, (+/−)-(1S,2R,3S,4R)—N^2-(4-Ethyl-phenyl)-spiro[bicyclo[2.2.1]heptane-7,1′-cyclopropane]-2,3-dicarboxamide]
0.0077	0.87	–	–	> 10	–	NC(=O)C1C(C(=O)Nc2ccc(I)cc2)C2C=CC1C21CC1 (racemic) [Compound 69, (+/−)-(1R,4S,5R,6S)—N^5-(4-Iodophenyl)spiro[bicyclo[2.2.1]hept[2]ene-7,1′-cyclopropane]-5,6-dicarboxamide]
0.475	0.95	–	–	> 10	–	C[S+]([O-])c1ccc(NC(=O)C2C(C(=O)O)C3CCC2C32CC2)cc1 (racemic) [Compound 70, (+/−)-(1R,2S,3R,4S)-3-((4-Methylsulfinyl)phenyl)carbamoyl)spiro[bicyclo[2.2.1]-heptane-7,1′-cyclopropane]-2-carboxylic Acid]
0.617	0.92	–	–	> 10	–	O=C(O)C1=C(C(=O)Nc2ccc(Br)cc2)C2C=CC1C21CC1 (racemic) [Compound 72, (+/−)-(1R,4S)-2-((4-Bromophenyl)carbamoyl)spiro[bicyclo[2.2.1]-hepta[2,5]diene-7,1′-cyclopropane]-3-carboxylic Acid]
